This is an account of results in patent US11285135B2 (AMGEN INC., priority 2016, dated 2022).

Where two headings read alike, the source gives them in different places.

In assay [1] the target is GDP-bound BRAS protein (aa 1-169), containing both G12C and C118A amino acid substitutions (Homo sapiens, UniProt P01116, C118A/G12C). Nature of the assay: Coupled Nucleotide Exchange Assay (SOS-mediated nucleotide exchange, AlphaScreen). The class given is biochemical. The conditions noted are these: 2 hours compound pre-incubation. Summed up:
(§1)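 His-tagged GDP-bound […] (aa 1-169, G12C/C118A) pre-incubated 2 h with compound titration in 25 mM HEPES pH 7.4, 10 mM MgCl2, 0.01% Triton X-100.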
A general note: Alpha assays give light when donor and acceptor beads are brought close together.

Assay [2] has as its system Phosphorylation of ERK½ in A549 cells. Nature of the assay: Phospho-ERK½ MSD Assay in A549 cells. The class given is cell-based. The conditions noted are these: Homo sapiens, A549, A549 cells; 4 hours compound treatment; 10 ng/mL EGF for 10 min; read-out: p-ERK IC50 (A549). The procedure, abridged: (§2)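 MIA PaCa-2 or A549 cells (25,000/well, RPMI with 10% FBS) exposed to compound titration for 4 h at 37 °C, then stimulated with 10 ng/mL EGF for 10 min and lysed in RIPA. Phospho-ERK1/2 quantified by MSD whole-cell lysate immunoassay; IC50 from 4-parameter logistic fit.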

The target in assay [3] is GDP-bound protein (aa 1-169), containing both G12C and C118A amino acid substitutions (Homo sapiens, UniProt P01116, C118A/G12C). Nature of the assay: Coupled Nucleotide Exchange Assay (SOS-mediated nucleotide exchange, AlphaScreen). The class given is biochemical. The conditions noted are these: 2 hours compound pre-incubation. The procedure, abridged:
as §1

Assay [4] has as its system Phosphorylation of ERK½ in MIA PaCa-2 cells. Nature of the assay: Phospho-ERK½ MSD Assay in MIA PaCa-2 cells. The class given is cell-based. As to conditions: 4 hours compound treatment, 10 ng/mL EGF for 10 min, read-out: p-ERK IC50 (MIA PaCa-2). The procedure, abridged:
as §2

Where [5] appears, read: Homo sapiens, MIA PaCa-2, MIA PaCa-2 cells.

Chain of GDP-bound protein (aa 1-169), containing both G12C and C118A amino acid substitutions (P01116 1-169 isoform P01116-2 G12C/C118A): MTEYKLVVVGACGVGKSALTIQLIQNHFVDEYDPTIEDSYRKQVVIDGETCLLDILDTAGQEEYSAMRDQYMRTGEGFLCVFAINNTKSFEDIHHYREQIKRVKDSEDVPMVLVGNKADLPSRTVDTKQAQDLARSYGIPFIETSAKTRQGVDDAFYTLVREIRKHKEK
Chain of GDP-bound BRAS protein (aa 1-169), containing both G12C and C118A amino acid substitutions (P01116 1-169 isoform P01116-2 G12C/C118A): as above

As for `C=CC(=O)N1CCN(c2nc(=O)n(-c3ccccc3C(C)C)c3cc(Br)c(Cl)cc23)[C@@H](C)C1` [Example 9-2, 7-bromo-6-chloro-4-((2S)-2-methyl-4-(2-propenoyl)-1-piperazinyl)-1-(2-(2-propanyl)phenyl)-2(1H)-quinazolinone], in assay [1], half-maximal inhibition (IC50) was put at 0.289 µM.
For the compound `C=CC(=O)N1CCN(c2snc3c(F)c(-c4cccc5cccnc45)c(Cl)cc23)CC1` [Example 3-24, 1-(4-(5-chloro-7-fluoro-6-(quinolin-8-yl)benzo[c]isothiazol-3-yl)piperazin-1-yl)prop-2-en-1-one], the half-inhibitory concentration (IC50) was > 100 µM in assay [2] and 23.7 µM in assay [4] (setting [5]). Further, the “Coupled exchange IC50” value in assay [3] stood at 9.07 µM.
As to `C=CC(=O)N1CCN(c2nc(=O)n(-c3ccccc3C(C)C)c3cc(-c4cc(O)cc(Cl)c4Cl)c(Cl)cc23)[C@@H](C)C1` [Example 9-1, 6-Chloro-7-(2,3-dichloro-5-hydroxyphenyl)-4-((2S)-2-methyl-4-(2-propenoyl)-1-piperazinyl)-1-(2-(2-propanyl)phenyl)-2(1H)-quinazolinone], the concentration for half-maximal inhibition (IC50) in assay [2] was determined as 57.4 µM; in assay [4] (setting [5]), 0.052 µM. Moreover, in assay [3], the “Coupled exchange IC50” value amounted to 0.155 µM.
Regarding `C=CC(=O)N1CCN(c2snc3c(F)c(-c4cc(O)cc5ccccc45)c(Cl)cc23)[C@H](C)C1` [Example 1-21, 1-((3R)-4-(5-chloro-7-fluoro-6-(3-hydroxy-1-naphthalenyl)-2,1-benzothiazol-3-yl)-3-methyl-1-piperazinyl)-2-propen-1-one], the IC50 is > 100 µM in assay [2] and 4.89 µM in assay [4] (setting [5]). The “Coupled exchange IC50” value in assay [3] is 1.30 µM.
As to `C=CC(=O)N1CC[C@H]2[C@@H]1CN2c1snc2c(F)c(-c3cc(O)cc4ccccc34)c(Cl)cc12` [Example 5-6, 1-((1S,5S)-6-(5-chloro-7-fluoro-6-(3-hydroxy-1-naphthalenyl)-2,1-benzothiazol-3-yl)-2,6-diazabicyclo[3.2.0]heptan-2-yl)-2-propen-1-one], the IC50 was > 100 µM in assay [2] and 5.9 µM in assay [4] (setting [5]). Also, the “Coupled exchange IC50” value in assay [3] was found to be 0.883 µM.
Consider `C=CC(=O)N1CCN(c2snc3c(F)c(-c4cc(O)cc5ccccc45)c(Cl)cc23)[C@@H](C)C1` [Example 1-19, 1-((3S)-4-(5-chloro-7-fluoro-6-(3-hydroxy-1-naphthalenyl)-2,1-benzothiazol-3-yl)-3-methyl-1-piperazinyl)-2-propen-1-one], for which the IC50 in assay [2] is > 100 µM; in assay [4] (MIA PaCa-2 cells), 1.33 µM. In addition, in assay [3], the “Coupled exchange IC50” value stood at 0.297 µM.

One may read the IC50 as the point on the concentration scale where inhibition reaches its midpoint.
